Literature values in paper PMC12690571, “Green Synthesis of a Hyaluronan-Based Multimeric A9 Peptide System: Polysaccharide-A9 Conjugate with Enhanced HER2 Receptor Binding Affinity and Potential Biomedical Applications as an Active Material” (Biomacromolecules, 2025).

System: HER2 receptor
Parameters: method as in not printed at the place
Conditions: A9 peptide; introduction, earlier work, ref not given

Substance: H-QDVNTAVAW-NH2 [A9]
- binding affinity to HER2 receptor (in words): binds with high affinity
